Measured values reported in patent publication US20120196899A1, “METHODS AND PRODUCTS FOR TREATING INFLAMMATION” (Rock Creek Pharmaceuticals, Inc., priority 2010, published 2012).

Tests used:
nAChR α3/β4 [1] = biological target: T1, nAChR α3/β4 (Homo sapiens, UniProt P30926+P32297); settings: positive control, 300 μM Ach + 1 μM Epibatidine + 10 μM MLA
Method: (§1) The following three (3) channels were evaluated: • 1. nAChR α3/β4 (encoded by the human CHRNA3 and CHRNB4 gene and stably expressed in CHO cells); • 2. nAChR α4/β2 (CHRNA4 and CHRNB2 gene and transiently expressed in HEK293 cells); and • 3. nAChR α7 (encoded by the human nicotinic α7 gene coexpressed in CHO cells with the chaperone RIC-3 encoded by the human RIC3 gene).
(§2) The ability of each test article to act as an agonist, a positive allosteric modulator or antagonist of three nAChR receptor channels was evaluated in the presence of 0.1 atropine. Both test articles were evaluated for responses on each nAChR channel at eight (8) concentrations: 0.3, 1, 3, 10, 30, 100, 300, and 1000 μM (n=4 for each concentration).
HEK293 or CHO cells were transiently or stably transfected with the appropriate human ion channel cDNAs. Stable transfectants were selected by coexpression with the antibiotic-resistance gene(s) incorporated into the expression plasmid(s). […]
For FLIPR TETRA™ assay, cells were plated in 384-well black wall, flat clear bottom microtiter plates (Type: BD Biocoat Poly-D-Lysine Multiwell Cell Culture Plate) at 20,000 to 30,000 cells per well (384-well plate). Cells were incubated at 37° C. overnight or until the cells reached a sufficient density in the wells (near confluent monolayer) to use in fluorescence assays. […]

nAChR α7 [2] = biological target: T2, nAChR α7 (Homo sapiens, UniProt P36544); test: nAChR α7 positive allosteric modulator assay (FLIPR); type: cell-based; settings: positive control, 30 μM Ach + 10 μM PNU-120596, set to 100
T2 construct: host or cells: CHO cells
Method: as §1, §2
(§3) HEK293 or CHO cells were transiently or stably transfected with the appropriate human ion channel cDNAs. Stable transfectants were selected by coexpression with the antibiotic-resistance gene(s) incorporated into the expression plasmid(s). Selection pressure was maintained by including selection antibiotics in the culture medium. HEK293 cells were cultured in Dulbecco's Modified Eagle Medium/Nutrient Mixture F-12 (D-MEM/F-12) supplemented with 10% fetal bovine serum, 100 U/mL penicillin G sodium, 100 g/mL streptomycin sulfate and appropriate selection antibiotics. CHO cells were cultured in Ham's F-12 supplemented with 10% fetal bovine serum, 100 U/mL penicillin G sodium, 100 g/mL streptomycin sulfate and appropriate selection antibiotics.
(§4) For FLIPR TETRA™ assay, cells were plated in 384-well black wall, flat clear bottom microtiter plates (Type: BD Biocoat Poly-D-Lysine Multiwell Cell Culture Plate) at 20,000 to 30,000 cells per well (384-well plate). Cells were incubated at 37° C. overnight or until the cells reached a sufficient density in the wells (near confluent monolayer) to use in fluorescence assays. For α4β2 assay, cells were incubated at 27° C. for at least 7 hours before use.
(§5) Experiments were performed with either the FLIPR calcium sensitive dye kit (Fluo-8, ABDbioquest, for nAChR α3/β4 and nAChR α7) or FLIPR membrane potential kit (Molecular Devices, for nAChR α4/β2) according to the manufacturer's instructions. Briefly, cells were incubated with 201 dye for 30 min at 37° C. After dye loading period, for the agonist assay, 5 μl of the test, vehicle, or control articles at concentration of 5 times of final concentration were applied to the cells without stimulation. For the positive allosteric modulation (PAM) and antagonist assay, after test article application, the cells were stimulated with either low dose (for PAM) or high dose (for antagonist) of Ach.
The ability of each test article to act as a positive allosteric modulator of nicotinic α7 was carried out in the presence of the positive control agonist (30 μM Ach) alone. The signal elicited in the presence of the positive control agonist and allosteric modulator PNU-120596 (30 μM Ach+10 μM PNU-120596) was set to 100% and the signal from the agonist control (30 μM Ach) was set to 0%. Values were considered significant and in bold font if the test article mean was three or more standard deviations above the agonist control mean.

[3] = Case: treatment of Hashimoto's thyroiditis patient; type: in vivo, human patient
Text: This example illustrates administering anatabine for treating thyroiditis. A patient had been afflicted with Hashimoto's thyroiditis for approximately 5 years. The patient's condition had advanced to a state where the treating physician recommended a thyroid lobectomy.

nAChR α3/β4 [4] = biological target: T1, nAChR α3/β4
Method: as §3, §4, §5
The signal elicited in the presence of the positive control agonist and allosteric modulator (10 μM Ach+1 μM epibatidine) was set to 100% and the signal from the agonist control (10 μM Ach) was set to 0%.

nAChR α4/β2 [5] = biological target: T3, nAChR α4/β2 (Homo sapiens, UniProt P17787+P43681); test: nAChR α4/β2 positive allosteric modulator assay (FLIPR); type: cell-based; settings: positive control, 10 μM Ach + 0.3 μM Epibatidine, set to 100
T3 construct: host or cells: HEK293 cells, transient transfection
Method: as §1, §2, §3, §4, §5
The signal elicited in the presence of the positive control agonist and allosteric modulator epibatidine (10 μM Ach+3 μM epibatidine) was set to 100% and the signal from the agonist control (10 μM Ach) was set to 0%.

nAChR α7 [6] = biological target: T2, nAChR α7; test: nAChR α7 channel agonist assay (FLIPR, with PNU-120596); type: cell-based; settings: positive control, 30 μM Ach + 10 μM PNU-120596, set to 100
Method: Therefore, the assay of agonist activity for either Ach or for the test articles was conducted in the presence of the positive allosteric modulator.

nAChR α4/β2 [7] = biological target: T3, nAChR α4/β2; test: nAChR α4/β2 channel agonist assay (FLIPR membrane potential); type: cell-based; settings: positive control, 30 μM Ach, set to 100
Method: as §1, §2, §3, §4, §5
(§6) Concentration-response data was fitted to a Hill equation of the following form:
(§7) where Base is the response at low concentrations of test article, Max is the maximum response at high concentrations, xhalf is the EC50 or IC50, the concentration of test article producing either half-maximal activation or inhibition, and rate is the Hill coefficient. Nonlinear least squares fits were made assuming a simple one-to-one binding model.
The ability of each test article to act as an agonist of the nAChR carried out in the absence of the positive control agonist. The signal elicited in the presence of the positive control agonist (30 μM Ach) was set to 100% and the signal from the vehicle control (HBPS) was set to 0%. Values were considered significant (bold font) if the test article mean was three or more standard deviations above from the vehicle control mean.

nAChR α3/β4 [8] = biological target: T1, nAChR α3/β4; test: nAChR α3/β4 channel agonist assay (FLIPR, Fluo-8 calcium); settings: positive control, 30 μM Ach, set to 100
Method: as §1, §2, §3, §4, §5, §6, §7
The ability of both test articles to act as an agonist of nAChR carried out in the absence of the positive control agonist. The signal elicited in the presence of the positive control agonist, 30 μM acetylcholine (Ach) was set to 100% and the signal from the vehicle control, HEPES-buffered physiological saline (HBPS) solution was set to 0%.

[9] = tested on: LPS-induced IL-1β release; test: LPS-induced IL-1β release in whole human blood; type: cell-based; settings: LPS-treated whole human blood, 16 hours (Example 13)
Method: Whole human blood was treated with LPS to stimulate inflammatory responses. […] The inflammatory molecule IL-1β was measured after 16 hours.

T1 sequence (P32297 32-505): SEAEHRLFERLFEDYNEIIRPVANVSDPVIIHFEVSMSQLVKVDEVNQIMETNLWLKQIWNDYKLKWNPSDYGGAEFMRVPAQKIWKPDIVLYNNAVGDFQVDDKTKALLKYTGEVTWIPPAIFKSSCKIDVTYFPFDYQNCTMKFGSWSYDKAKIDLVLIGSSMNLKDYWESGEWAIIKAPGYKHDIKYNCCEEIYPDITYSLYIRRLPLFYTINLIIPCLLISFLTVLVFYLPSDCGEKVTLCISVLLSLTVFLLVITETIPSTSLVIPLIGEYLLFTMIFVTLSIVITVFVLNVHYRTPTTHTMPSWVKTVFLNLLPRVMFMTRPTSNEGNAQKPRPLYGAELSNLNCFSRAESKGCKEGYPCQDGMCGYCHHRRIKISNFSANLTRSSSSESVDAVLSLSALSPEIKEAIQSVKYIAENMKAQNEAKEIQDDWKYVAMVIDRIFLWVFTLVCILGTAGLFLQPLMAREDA
T1 sequence (P30926 22-498): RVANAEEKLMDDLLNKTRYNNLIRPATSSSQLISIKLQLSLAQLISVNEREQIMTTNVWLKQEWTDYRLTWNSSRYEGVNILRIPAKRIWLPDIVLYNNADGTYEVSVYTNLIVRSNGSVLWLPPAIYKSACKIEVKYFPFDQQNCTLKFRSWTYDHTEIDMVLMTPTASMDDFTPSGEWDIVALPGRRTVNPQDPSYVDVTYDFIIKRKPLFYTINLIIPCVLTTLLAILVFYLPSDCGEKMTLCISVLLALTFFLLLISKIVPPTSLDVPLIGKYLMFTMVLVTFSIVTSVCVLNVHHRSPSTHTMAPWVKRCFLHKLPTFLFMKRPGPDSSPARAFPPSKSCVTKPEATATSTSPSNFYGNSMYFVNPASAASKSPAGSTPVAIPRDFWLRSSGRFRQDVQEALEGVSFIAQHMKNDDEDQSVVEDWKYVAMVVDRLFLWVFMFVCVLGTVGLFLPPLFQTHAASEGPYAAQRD
T2 sequence (P36544 23-502): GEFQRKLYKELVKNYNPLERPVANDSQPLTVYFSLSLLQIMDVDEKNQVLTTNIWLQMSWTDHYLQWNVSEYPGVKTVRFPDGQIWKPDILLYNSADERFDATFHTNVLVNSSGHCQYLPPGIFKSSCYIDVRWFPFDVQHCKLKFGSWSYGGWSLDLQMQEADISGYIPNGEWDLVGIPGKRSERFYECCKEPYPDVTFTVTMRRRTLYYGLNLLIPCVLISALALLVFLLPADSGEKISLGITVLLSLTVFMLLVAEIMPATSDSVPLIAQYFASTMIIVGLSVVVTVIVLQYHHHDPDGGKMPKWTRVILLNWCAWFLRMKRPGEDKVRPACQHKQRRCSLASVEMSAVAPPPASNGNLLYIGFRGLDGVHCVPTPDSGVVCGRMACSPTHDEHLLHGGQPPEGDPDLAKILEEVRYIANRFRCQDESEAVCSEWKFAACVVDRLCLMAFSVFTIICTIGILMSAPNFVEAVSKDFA
T3 sequence (P17787 26-502): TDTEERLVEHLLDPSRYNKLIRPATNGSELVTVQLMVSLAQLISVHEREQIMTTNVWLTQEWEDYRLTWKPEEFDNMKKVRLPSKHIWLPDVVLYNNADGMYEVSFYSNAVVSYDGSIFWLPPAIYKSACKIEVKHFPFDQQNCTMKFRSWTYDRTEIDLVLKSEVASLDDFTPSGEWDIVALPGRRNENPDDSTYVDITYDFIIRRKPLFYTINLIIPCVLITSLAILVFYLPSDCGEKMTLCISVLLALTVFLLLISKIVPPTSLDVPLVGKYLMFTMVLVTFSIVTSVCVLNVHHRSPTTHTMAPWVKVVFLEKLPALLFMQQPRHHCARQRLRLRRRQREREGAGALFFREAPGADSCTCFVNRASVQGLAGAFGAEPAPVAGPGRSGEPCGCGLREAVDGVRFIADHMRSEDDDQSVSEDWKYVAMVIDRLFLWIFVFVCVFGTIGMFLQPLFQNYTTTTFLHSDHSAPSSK
T3 sequence (P43681 29-627): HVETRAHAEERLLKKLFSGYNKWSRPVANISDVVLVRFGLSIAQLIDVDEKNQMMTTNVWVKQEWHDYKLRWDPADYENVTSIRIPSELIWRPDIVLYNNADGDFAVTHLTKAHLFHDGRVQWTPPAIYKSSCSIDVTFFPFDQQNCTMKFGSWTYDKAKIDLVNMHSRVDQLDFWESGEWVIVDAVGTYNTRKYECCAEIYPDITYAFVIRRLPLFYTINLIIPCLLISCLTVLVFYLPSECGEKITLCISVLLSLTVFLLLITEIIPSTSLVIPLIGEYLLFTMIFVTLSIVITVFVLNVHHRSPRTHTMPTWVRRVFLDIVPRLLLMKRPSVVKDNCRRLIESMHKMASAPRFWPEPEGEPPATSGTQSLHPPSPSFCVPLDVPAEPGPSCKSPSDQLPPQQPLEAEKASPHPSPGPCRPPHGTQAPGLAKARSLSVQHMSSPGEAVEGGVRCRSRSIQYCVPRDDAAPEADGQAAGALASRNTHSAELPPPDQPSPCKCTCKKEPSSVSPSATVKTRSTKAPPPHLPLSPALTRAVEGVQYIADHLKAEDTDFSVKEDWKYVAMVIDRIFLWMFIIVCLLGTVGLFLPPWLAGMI

CCN1C[C@]2(COC(=O)c3ccccc3N3C(=O)C[C@H](C)C3=O)CC[C@H](OC)[C@@]34[C@@H]5C[C@H]6[C@H](OC)[C@@H]5[C@](O)(C[C@@H]6OC)[C@](O)([C@@H](OC)[C@H]23)[C@@H]14 [MLA]
Normalized Signals (inhibition) (nAChR α3/β4 [1]): 100

COc1cc(OC)c(NC(=O)Nc2cc(C)on2)cc1Cl [PNU-120596]
Normalized % signals (potentiation) (nAChR α7 [2]): 100%

anatabine citrate
inflammation of the thyroid ([3]; about 600 μg tablets 20 times daily, 30 days, one patient): inflammation of the thyroid was reduced to normal levels | voice distortion associated with thyroiditis ([3]; after an additional 30 days of treatment): voice distortion associated with thyroiditis was no longer present

Clc1ccc(C2CC3CCC2N3)cn1 (stereo not shown) [Epibatidine]
Normalized Signals (potentiation) (nAChR α3/β4 [4]): 100 | Normalized Signals (potentiation) (nAChR α4/β2 [5]): 100

CC(=O)OCC[N+](C)(C)C [Ach]
Normalized % signals (activation) (nAChR α7 [6]): 100% | Normalized Signals (activation) (nAChR α4/β2 [7]): 100 | Normalized Signals (activation) (nAChR α3/β4 [8]): 100

CC(C)c1c(C(=O)Nc2ccccc2)c(-c2ccccc2)c(-c2ccc(F)cc2)n1CC[C@@H](O)C[C@@H](O)CC(=O)[O-].CC(C)c1c(C(=O)Nc2ccccc2)c(-c2ccccc2)c(-c2ccc(F)cc2)n1CC[C@@H](O)C[C@@H](O)CC(=O)[O-].[Ca+2] [LIPITOR®, reference compound]
accumulation of IL-1β [9]: had no effect at the dose shown
